From patent US10526337B2, “Heteroaryl derivative or pharmaceutically acceptable salt thereof, preparation method therefor, and pharmaceutical composition for preventing or treating diseases associated with PI3 kinases, containing same as active ingredient” (KOREA RESEARCH INSTITUTE OF CHEMICAL TECHNOLOGY, priority 2015, dated 2020)

Legend:
Conditions in all cases: ATP=10 uM, sample concentration=100 nM
PI3 Kinase (p120γ) (h) = molecular target: T1, PI3 Kinase (p120γ) (h) (Homo sapiens, UniProt P48736); experiment: Inhibition of phosphatidylinositol 3-kinase gamma (PI3K γ), pAkt Western blotting in C5a-stimulated RAW264.7 macrophages; format: cell-based, mouse
T1 construct: endogenous in cells; host or cells: RAW264.7
In short: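 Enzyme: PI3Kγ activity measured at ATP=10 uM with compound at 100 nM. Cellular: RAW264.7 macrophages treated with compound 1.5 h, then stimulated with 10 ng/mL C5a for 5 min; lysates (10 μg protein) probed by Western blot for pAkt (Ser473 or Thr308), ECL detection.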

[1] = molecular target: T2, PI3 Kinase (p110β/p86α) (h) (Homo sapiens, UniProt P42338); experiment: Inhibition of phosphatidylinositol 3-kinase beta (PI3K β), pAkt Western blotting in LPA-stimulated PC3 cells; format: cell-based
T2 construct: endogenous in cells; host or cells: PC3
Procedure: (§1) The stimulated cells were transferred in a 1.5 mL tube, followed by centrifugation at 3000 rpm for 1 minute. 100 μL of RIPA buffer (radioimmunoprecipitation assay buffer, 50 mM Tris-HCl, 5 mM EDTA, 150 mM NaCl, 1% NP-40, 1 mM PMSF, pH 8.0; ELPIS, Korea) was added thereto, which was stored in a 4° C. refrigerator for 12 hours. Centrifugation was performed at 4° C. at 14,000 rpm for 20 minutes. The supernatant was transferred into a new 1.5 mL tube. Protein was quantified by BCA (bicinchoninic acid) method and samples were prepared. The composition of the sample was as follows: sample buffer (ELPIS, EBA-1052) 5×, protein 10 μg, and 1× sample buffer to make the total volume 20 μL. The sample was heated at 100° C. for 5 minutes. The evaporated water vapor was condensed in a refrigerator. The liquid stained on the wall was fallen down by centrifugation for a few seconds. The sample proceeded to 10% SDS (Sodium Dodecyl Sulfate) acrylamide gel for separation. The separated protein was transferred onto PVDF (poly-vinyl difluoride) membrane, followed by reaction with pAkt (phospho protein kinase B) antibody (Ser473 or Thr308; Cell signaling, 9271s or 13038s) for 12 hours at 4° C. The membrane was washed with TBST (Tris-Buffered Saline with Tween 20, 10 mM Tris-HCl, pH 7.5, 150 mM NaCl, 0.1% Tween-20) three times for 5 minutes each, to which the secondary antibody (rabbit antibody, Santacruz, sc-2004) was added, followed by reaction at room temperature for 2 hours. The membrane was washed with TBST three times for 10 minutes each, to which ECL (enhanced chemiluminescence, Thermo, NCI34095KR) was sprayed. Bands were investigated by using LAS-3000.
The inhibition of phosphatidylinositol 3 kinase beta (PI3K β) by those compounds prepared in Examples 1˜98 was investigated by the following experiment. The inhibition activity of each compound was measured in the following conditions: ATP=10 uM, and sample concentration=100 nM.
Human prostate cancer cells (PC3 cells) cultured in DMEM (Dulbecco's Modified Eagle Medium, Hyclon, SH30243.01) supplemented with 10% fetal bovine serum (Hyclon, USA) were distributed in a 12-well plate at the density of 1,000,000 cells/well. The cells were stabilized in a 37° C. CO2 for 24 hours and then treated with each compound for 1 and half hours. The cells were treated with 10 ng/mL of LPA (lysophosphatidic acid, 10 μg/mL; R&D, 2150-05) to increase the intracellular activity of PI3K beta. 5 minutes later, the medium was discarded and the cells were washed with cold PBS (phosphate buffered saline, Gibco, 14190-250). PBS was then eliminated completely by using a pipette. Western blotting was performed according to the same manner as described in step 2 of Experimental Example 1 to evaluate the intracellular PI3K beta activity.

[2] = molecular target: T3, PI3 Kinase (p110α/p85α) (h) (Homo sapiens, UniProt P42336); experiment: Inhibition of phosphatidylinositol 3-kinase alpha (PI3K α), pAkt Western blotting in EGF-stimulated MDA-MB-453 cells; format: cell-based
T3 construct: endogenous in cells; host or cells: MDA-MB-453
Procedure: The inhibition of phosphatidylinositol 3 kinase alpha (PI3K α) by those compounds prepared in Examples 1˜98 was investigated by the following experiment. The inhibition activity of each compound was measured in the following conditions: ATP=10 uM, and sample concentration=100 nM.
Human breast cancer cells (MDA-MB-453) cultured in DMEM (Dulbecco's Modified Eagle Medium, Hyclon, SH30243.01) supplemented with 10% fetal bovine serum (Hyclon, USA) were distributed in a 12-well plate at the density of 1,000,000 cells/well. The cells were stabilized in a 37° C. CO2 for 24 hours and then treated with each compound for 1 and half hours. The cells were treated with 10 ng/mL of EGF (Epidermal Growth Factor, 10 μg/mL; R&D, 2150-C5) to increase the intracellular activity of PI3K alpha. 5 minutes later, the medium was discarded and the cells were washed with cold PBS (phosphate buffered saline, Gibco, 14190-250). PBS was then eliminated completely by using a pipette. Western blotting was performed as described in step 2 to evaluate the intracellular PI3K alpha activity.
as §1

[3] = molecular target: T4, PI3 Kinase (p110δ/p85α) (h) (Homo sapiens, UniProt O00329); experiment: Inhibition of phosphatidylinositol 3-kinase delta (PI3K δ), pAkt Western blotting in IgM-stimulated Raji cells; format: cell-based
T4 construct: endogenous in cells; host or cells: Raji
In short: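 Raji cells were treated with compound for 1.5 h, then stimulated with 0.25 μg/mL IgM for 30 min to activate PI3Kδ. Lysates were Western blotted for pAkt (Ser473 or Thr308) with ECL detection. Conditions stated: ATP=10 uM, sample concentration=100 nM.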

T2 sequence (P42338 whole entry): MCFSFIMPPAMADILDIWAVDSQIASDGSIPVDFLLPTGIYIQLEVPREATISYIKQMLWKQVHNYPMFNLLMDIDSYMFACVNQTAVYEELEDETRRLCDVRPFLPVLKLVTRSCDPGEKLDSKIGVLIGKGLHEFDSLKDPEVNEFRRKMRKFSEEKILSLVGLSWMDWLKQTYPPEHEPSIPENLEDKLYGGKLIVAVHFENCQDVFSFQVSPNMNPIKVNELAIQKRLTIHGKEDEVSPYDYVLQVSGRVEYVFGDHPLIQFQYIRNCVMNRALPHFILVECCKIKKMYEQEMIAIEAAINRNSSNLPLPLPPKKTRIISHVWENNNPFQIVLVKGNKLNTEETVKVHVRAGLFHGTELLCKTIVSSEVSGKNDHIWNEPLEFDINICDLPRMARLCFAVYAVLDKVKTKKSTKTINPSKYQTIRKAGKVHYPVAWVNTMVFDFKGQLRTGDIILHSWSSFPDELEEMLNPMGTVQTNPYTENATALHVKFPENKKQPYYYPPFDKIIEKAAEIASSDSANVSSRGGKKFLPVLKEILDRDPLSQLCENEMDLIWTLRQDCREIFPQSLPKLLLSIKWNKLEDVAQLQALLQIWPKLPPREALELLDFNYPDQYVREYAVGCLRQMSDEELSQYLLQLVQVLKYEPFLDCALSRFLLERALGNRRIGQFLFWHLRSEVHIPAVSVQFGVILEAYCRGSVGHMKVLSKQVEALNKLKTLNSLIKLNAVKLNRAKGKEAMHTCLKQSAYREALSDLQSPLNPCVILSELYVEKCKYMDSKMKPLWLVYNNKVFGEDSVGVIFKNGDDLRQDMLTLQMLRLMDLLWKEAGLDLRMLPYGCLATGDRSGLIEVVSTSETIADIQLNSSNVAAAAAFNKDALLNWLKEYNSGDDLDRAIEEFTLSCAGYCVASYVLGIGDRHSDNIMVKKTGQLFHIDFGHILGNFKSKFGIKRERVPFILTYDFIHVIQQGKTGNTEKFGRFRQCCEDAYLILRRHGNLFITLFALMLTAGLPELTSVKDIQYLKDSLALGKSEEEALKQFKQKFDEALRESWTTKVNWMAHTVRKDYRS
T2 sequence (P27986 whole entry partner): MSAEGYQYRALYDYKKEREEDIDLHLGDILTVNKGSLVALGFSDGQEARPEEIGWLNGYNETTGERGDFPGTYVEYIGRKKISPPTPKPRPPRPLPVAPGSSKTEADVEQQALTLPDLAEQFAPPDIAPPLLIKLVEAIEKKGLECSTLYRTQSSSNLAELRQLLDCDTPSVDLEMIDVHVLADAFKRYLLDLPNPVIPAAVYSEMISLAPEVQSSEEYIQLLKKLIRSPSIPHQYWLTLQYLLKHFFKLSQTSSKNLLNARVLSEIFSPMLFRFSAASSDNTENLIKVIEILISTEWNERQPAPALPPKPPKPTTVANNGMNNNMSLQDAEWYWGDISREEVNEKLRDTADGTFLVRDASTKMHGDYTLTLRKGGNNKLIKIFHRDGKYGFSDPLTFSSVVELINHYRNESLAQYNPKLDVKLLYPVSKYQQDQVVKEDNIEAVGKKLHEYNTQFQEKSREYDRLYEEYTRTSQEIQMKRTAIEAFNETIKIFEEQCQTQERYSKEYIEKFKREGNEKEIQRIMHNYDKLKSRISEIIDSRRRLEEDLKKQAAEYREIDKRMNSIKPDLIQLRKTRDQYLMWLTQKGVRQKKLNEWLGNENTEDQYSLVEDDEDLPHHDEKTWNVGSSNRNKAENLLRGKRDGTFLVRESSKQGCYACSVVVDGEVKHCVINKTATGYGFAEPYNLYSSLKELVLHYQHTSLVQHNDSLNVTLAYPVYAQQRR
T3 sequence (P42336 whole entry): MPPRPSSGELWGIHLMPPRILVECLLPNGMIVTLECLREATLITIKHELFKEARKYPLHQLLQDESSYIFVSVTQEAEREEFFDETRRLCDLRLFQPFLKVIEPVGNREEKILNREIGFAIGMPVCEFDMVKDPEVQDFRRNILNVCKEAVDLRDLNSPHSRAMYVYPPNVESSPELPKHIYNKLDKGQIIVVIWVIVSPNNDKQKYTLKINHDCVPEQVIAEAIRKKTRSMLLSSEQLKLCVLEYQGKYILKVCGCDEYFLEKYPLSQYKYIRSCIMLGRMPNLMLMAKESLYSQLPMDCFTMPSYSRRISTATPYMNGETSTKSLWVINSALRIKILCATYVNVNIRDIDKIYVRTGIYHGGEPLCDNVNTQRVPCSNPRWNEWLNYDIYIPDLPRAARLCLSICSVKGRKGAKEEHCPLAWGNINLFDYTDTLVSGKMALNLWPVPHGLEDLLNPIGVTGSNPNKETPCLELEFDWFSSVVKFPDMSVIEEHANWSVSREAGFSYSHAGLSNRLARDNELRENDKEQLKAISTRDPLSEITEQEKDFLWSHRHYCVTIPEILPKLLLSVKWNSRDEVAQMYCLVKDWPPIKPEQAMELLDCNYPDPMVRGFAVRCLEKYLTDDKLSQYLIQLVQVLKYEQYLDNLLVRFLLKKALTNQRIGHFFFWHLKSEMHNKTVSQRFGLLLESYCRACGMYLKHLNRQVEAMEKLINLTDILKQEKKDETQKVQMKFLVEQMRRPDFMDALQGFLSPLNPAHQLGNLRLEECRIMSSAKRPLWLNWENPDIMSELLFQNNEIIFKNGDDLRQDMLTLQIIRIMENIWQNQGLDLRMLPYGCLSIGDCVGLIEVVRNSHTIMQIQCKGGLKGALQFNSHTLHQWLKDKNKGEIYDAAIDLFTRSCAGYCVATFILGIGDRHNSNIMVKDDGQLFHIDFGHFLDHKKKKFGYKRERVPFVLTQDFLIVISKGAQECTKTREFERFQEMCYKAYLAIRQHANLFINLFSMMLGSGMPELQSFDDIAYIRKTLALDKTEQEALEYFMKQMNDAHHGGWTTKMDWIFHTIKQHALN
T3 sequence (P27986 2-724 partner limits assumed): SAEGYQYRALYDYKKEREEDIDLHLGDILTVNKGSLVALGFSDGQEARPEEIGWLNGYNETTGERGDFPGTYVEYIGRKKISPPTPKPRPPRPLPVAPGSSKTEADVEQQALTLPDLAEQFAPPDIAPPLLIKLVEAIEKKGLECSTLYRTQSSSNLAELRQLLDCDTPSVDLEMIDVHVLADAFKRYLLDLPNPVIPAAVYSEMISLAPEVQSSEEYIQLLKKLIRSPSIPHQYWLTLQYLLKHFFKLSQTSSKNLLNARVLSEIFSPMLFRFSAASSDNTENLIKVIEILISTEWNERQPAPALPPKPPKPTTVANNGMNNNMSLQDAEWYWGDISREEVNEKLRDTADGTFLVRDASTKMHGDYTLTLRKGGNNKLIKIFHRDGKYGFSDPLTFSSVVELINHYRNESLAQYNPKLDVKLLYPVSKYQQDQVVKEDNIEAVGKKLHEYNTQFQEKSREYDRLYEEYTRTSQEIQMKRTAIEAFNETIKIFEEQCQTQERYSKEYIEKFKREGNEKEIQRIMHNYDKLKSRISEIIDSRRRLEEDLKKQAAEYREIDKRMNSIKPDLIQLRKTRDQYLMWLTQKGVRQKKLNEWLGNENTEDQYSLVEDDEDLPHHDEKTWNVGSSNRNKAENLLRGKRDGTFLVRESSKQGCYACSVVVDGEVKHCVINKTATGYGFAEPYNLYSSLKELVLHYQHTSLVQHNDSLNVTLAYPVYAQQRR
T1 sequence (P48736 whole entry): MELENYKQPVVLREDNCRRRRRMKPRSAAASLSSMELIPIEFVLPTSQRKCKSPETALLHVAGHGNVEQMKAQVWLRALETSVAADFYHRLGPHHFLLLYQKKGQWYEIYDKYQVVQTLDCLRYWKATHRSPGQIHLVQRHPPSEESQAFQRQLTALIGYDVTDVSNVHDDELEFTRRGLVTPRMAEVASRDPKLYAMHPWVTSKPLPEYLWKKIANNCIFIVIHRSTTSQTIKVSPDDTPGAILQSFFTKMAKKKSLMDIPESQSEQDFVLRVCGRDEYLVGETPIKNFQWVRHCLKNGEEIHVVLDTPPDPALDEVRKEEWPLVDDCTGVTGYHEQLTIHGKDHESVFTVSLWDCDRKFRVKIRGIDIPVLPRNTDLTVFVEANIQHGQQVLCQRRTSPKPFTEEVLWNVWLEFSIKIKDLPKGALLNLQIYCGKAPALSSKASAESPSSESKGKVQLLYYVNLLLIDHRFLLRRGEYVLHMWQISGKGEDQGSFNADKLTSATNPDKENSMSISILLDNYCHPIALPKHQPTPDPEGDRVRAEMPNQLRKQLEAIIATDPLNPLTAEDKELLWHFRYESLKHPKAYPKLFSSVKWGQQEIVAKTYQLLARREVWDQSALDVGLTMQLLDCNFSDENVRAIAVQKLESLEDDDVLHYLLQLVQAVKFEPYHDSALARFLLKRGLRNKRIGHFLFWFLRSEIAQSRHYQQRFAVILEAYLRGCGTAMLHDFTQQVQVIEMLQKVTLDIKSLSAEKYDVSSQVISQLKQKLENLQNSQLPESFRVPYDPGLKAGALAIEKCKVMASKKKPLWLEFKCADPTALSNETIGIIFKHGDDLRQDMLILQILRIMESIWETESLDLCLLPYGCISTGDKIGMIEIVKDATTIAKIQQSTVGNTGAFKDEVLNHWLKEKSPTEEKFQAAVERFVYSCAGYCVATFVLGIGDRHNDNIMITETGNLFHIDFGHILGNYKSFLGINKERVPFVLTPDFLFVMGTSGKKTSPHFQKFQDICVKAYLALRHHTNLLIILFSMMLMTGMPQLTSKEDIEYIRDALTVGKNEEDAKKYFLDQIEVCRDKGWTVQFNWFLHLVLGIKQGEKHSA

In the case of `C[C@H](Nc1ncnc2c1C(=O)CCN2)c1c(Cl)c2cccc(Cl)c2c(=O)n1-c1ccccc1` [Example 98, (S)-4-((1-(4,8-dichloro-1-oxo-2-phenyl-1,2-dihydroisoquinoline-3-yl)ethyl)amino)-7,8-dihydropyrido[2,3-d]pyrimidine-5(6H)-one], the IC50 (PI3 Kinase (p120γ) (h)) is reported as 10 to 500 nM, the IC50 [1] is reported as 10 to 500 nM and the IC50 [2] is reported as over 500 nM. The IC50 [3] was under 10 nM.

`C[C@H](Nc1ncnc2[nH]cc(C#N)c(=O)c12)c1cc2cccc(Cl)c2c(=O)n1-c1ccccc1` [Example 19, (S)-4-((1-(8-chloro-1-oxo-2-phenyl-1,2-dihydroisoquinoline-3-yl)ethyl)amino)-5-oxo-5,8-dihydropyrido[2,3-d]pyrimidine-6-carbonitrile] was tested, and the IC50 (PI3 Kinase (p120γ) (h)) was over 500 nM, the IC50 [1] was over 500 nM and the IC50 [2] was over 500 nM. The IC50 [3] was over 500 nM.

Molecule `CC(Nc1ncnc2[nH]ccc(=O)c12)c1nc2cccc(Cl)c2cc1-c1ccccn1` (stereo not shown) [Example 33, 4-((1-(5-chloro-3-(pyridine-2-yl)quinoline-2-yl)ethyl)amino)pyrido[2,3-d]pyrimidine-5(8H)-one] has an IC50 (PI3 Kinase (p120γ) (h)) of 10 to 500 nM, an IC50 [1] of over 500 nM and an IC50 [2] of over 500 nM. The IC50 [3] was under 10 nM.

For `O=c1cc[nH]c2ncnc(N3CCC[C@H]3c3nc4cccc(Cl)c4c(=O)n3-c3ccccc3)c12` [Example 13, (S)-4-(2-(5-chloro-4-oxo-3-phenyl-3,4-dihydroquinazoline-2-yl)pyrrolidine-1-yl)pyrido[2,3-d]pyrimidine-5(8H)-one], the IC50 (PI3 Kinase (p120γ) (h)) was 10 to 500 nM, the IC50 [1] was over 500 nM and the IC50 [2] was over 500 nM. It also gave an IC50 [3] of under 10 nM.

`C[C@H](Nc1ncnc2[nH]ccc(=O)c12)c1nc2ccc(F)cc2c(-c2ccccn2)c1-c1ccccc1` [Example 27, (S)-4-((1-(6-fluoro-3-phenyl-4-(pyridine-2-yl)quinoline-2-yl)ethyl)amino)pyrido[2,3-d]pyrimidine-5(8H)-one] showed an IC50 (PI3 Kinase (p120γ) (h)) of 10 to 500 nM, an IC50 [1] of over 500 nM and an IC50 [2] of over 500 nM. For the same molecule, the IC50 [3] was 10 to 500 nM.

With `C[C@H](Nc1ncnc2c1C(=O)N(C)CN2)c1cc2cccc(Cl)c2c(=O)n1-c1ccccc1` [Example 38, (S)-5-((1-(8-chloro-1-oxo-2-phenyl-1,2-dihydroisoquinoline-3-yl)ethyl)amino)-3-methyl-2,3-dihydropyrimido[4,5-d]pyrimidine-4(1H)-one] the IC50 (PI3 Kinase (p120γ) (h)) was under 10 nM, the IC50 [1] was over 500 nM and the IC50 [2] was 10 to 500 nM. For the same molecule, the IC50 [3] was under 10 nM.

Molecule `C[C@H](Nc1ncnc2[nH]cc(Cl)c(=O)c12)c1c(Cl)c2cccc(Cl)c2c(=O)n1-c1ccccc1` [Example 24, (S)-6-chloro-4-((1-(4,8-dichloro-1-oxo-2-phenyl-1,2-dihydroisoquinoline-3-yl)ethyl)amino)pyrido[2,3-d]pyrimidine-5(8H)-one] has an IC50 (PI3 Kinase (p120γ) (h)) of 10 to 500 nM, an IC50 [1] of over 500 nM and an IC50 [2] of over 500 nM. The IC50 [3] was 10 to 500 nM.

`CC(Nc1ncnc2[nH]ccc(=O)c12)c1nc2ccc(F)cc2cc1-c1ccccn1` (stereo not shown) [Example 7, 4-((1-(6-fluoro-3-(pyridine-2-yl)quinoline-2-yl)ethyl)amino)pyrido[2,3-d]pyrimidine-5(8H)-one] was tested, and the IC50 (PI3 Kinase (p120γ) (h)) was over 500 nM, the IC50 [1] was over 500 nM and the IC50 [2] was over 500 nM. It also gave an IC50 [3] of under 10 nM.

`C[C@H](Nc1ncnc2[nH]ccc(=O)c12)c1c(Cl)c2cccc(Cl)c2c(=O)n1-c1ccccc1` [Example 10, (S)-4-((1-(4,8-dichloro-1-oxo-2-phenyl-1,2-dihydroisoquinoline-3-yl)ethyl)amino)pyrido[2,3-d]pyrimidine-5(8H)-one] showed an IC50 (PI3 Kinase (p120γ) (h)) of 10 to 500 nM, an IC50 [1] of over 500 nM and an IC50 [2] of over 500 nM. The IC50 [3] was under 10 nM.

Work on `C[C@H](Nc1ncnc2[nH]cc(F)c(=O)c12)c1nc2cccc(Cl)c2c(=O)n1-c1ccccc1` [Example 21, (S)-4-((1-(5-chloro-4-oxo-3-phenyl-3,4-dihydroquinazoline-2-yl)ethyl)amino)-6-fluoropyrido[2,3-d]pyrimidine-5(8H)-one] yielded an IC50 (PI3 Kinase (p120γ) (h)) of 10 to 500 nM, an IC50 [1] of 10 to 500 nM and an IC50 [2] of 10 to 500 nM. It also gave an IC50 [3] of under 10 nM.
